Data published in PMC10084752, “Heterologous Expression of the Hot Pepper ABA 8’-Hydroxylase in Escherichia coli for Phaseic Acid Production” (Journal of Microbiology and Biotechnology, 2023).

Target: T1, CaCYP707A2 (Capsicum annuum, UniProt X2C029)
T1 construct: gene CYP707A70; full-length, no N-terminal modification; pCW ori(+) in E. coli Rosetta (DE3) pLysS; 54 kDa
T1 sequence (X2C029 1-477): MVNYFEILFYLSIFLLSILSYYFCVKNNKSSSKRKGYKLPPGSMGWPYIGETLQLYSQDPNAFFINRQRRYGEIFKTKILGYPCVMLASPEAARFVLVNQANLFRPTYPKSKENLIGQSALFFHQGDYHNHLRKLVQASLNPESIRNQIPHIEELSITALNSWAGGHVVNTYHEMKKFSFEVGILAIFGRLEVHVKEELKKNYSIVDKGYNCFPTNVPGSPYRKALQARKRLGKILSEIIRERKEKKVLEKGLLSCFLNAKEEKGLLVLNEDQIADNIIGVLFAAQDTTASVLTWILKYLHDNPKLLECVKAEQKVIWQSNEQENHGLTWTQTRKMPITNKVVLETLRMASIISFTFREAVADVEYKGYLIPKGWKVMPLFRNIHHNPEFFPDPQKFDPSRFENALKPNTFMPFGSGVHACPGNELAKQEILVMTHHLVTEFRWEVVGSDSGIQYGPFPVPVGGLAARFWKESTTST
Assay: spectral binding titration (type I UV-visible difference spectrum)

Kd: 5.8 ± 0.93 µM
Structure (SMILES): CC1=CC(=O)CC(C)(C)C1(O)/C=C/C(C)=C\C(=O)O (stereo in doubt) [(+)-ABA]
